Test in all cases: MIC, broth-microdilution (CLSI VET01-A4)
Common to all, as to assay type: cell-based

Assay [1] has as its system Mannheimia haemolytica MH 10720 (154, BRD field isolate). To be noted: Mannheimia haemolytica MH 10720. The procedure, abridged:
(§1)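 MIC values follow CLSI VET01-S3 interpretation, scored as the lowest concentration free of visible turbidity within a doubling dilution series in microdilution trays.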

For assay [2], the system named is Mannheimia haemolytica MH 12587 (1071, BRD field isolate, macrolide-resistance: erm+, E+). The note with it: Mannheimia haemolytica MH 12587, macrolide-resistant. A digest of the protocol: as §1
The subject of assay [3] is Mannheimia haemolytica MH 6357 (M7/2, reference strain, cattle infection strain). The note with it: Mannheimia haemolytica MH 6357; read-out: MIC MH 6357. A digest of the protocol:
as §1

The subject of assay [4] is Mannheimia haemolytica MH 6374 (ATCC 33396, reference strain). To be noted: Mannheimia haemolytica MH 6374; read-out: MIC MH 6374. The procedure, abridged: as §1
The test system of assay [5] is Pasteurella multocida PM 10775 (080130003051, BRD field isolate). The note with it: Pasteurella multocida PM 10775. The procedure, abridged:
as §1

Assay [6] concerns Pasteurella multocida PM 12080 (IV102277-0093, BRD field isolate). To be noted: Pasteurella multocida PM 12080; for MIC: read-out: MIC PM 12080. A digest of the protocol: as §1
Assay [7] relates to Pasteurella multocida PM 6267 (P 2225 (L386), reference strain, mouse infection strain). To be noted: Pasteurella multocida PM 6267. A digest of the protocol:
as §1

The test system of assay [8] is Pasteurella multocida PM 6391 (ATCC 43137, reference strain). To be noted: Pasteurella multocida PM 6391; for MIC: read-out: MIC PM 6391. A digest of the protocol: as §1
Assay [9] deals with Mannheimia haemolytica MH 13065 (XB0446-6003.9, BRD field isolate). The procedure, abridged: (§2)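 MIC read by eye as lowest compound concentration without visible growth (no turbidity), interpreted per CLSI VET01-S3. Doubling-dilution broth-microdilution trays, run according to CLSI VET01-A4.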
Assay [10] concerns Mannheimia haemolytica MH 13093 (XB0472-6014.1, BRD field isolate). The procedure, abridged: as §2

≈ marks a conversion by molar mass, not a printed value.

`CSC(C)(C)[C@H](NC(=O)c1ccc(C#Cc2ccc(CNCC#N)cc2)cc1)C(=O)NO` [Compound 592]: the “MIC MH 10720” value in [1] is “<=0.1 μM”. The “MIC MH 12587” value in assay [2] amounted to 0.8 µM (≈ 0.36 µg/mL). The MIC in assay [3] stood at 0.4 µM (≈ 0.18 µg/mL); in assay [4], 0.8 µM (≈ 0.36 µg/mL); in assay [6] it was 0.2 µM (≈ 0.0901 µg/mL); in assay [8], 0.2 µM (≈ 0.0901 µg/mL); in assay [9], 0.8 µM (≈ 0.36 µg/mL); in [10], 0.4 µM (≈ 0.18 µg/mL). Further, in assay [5], the “MIC PM 10775” value is given as “<=0.1 μM”. For the same molecule, the “MIC PM 6267” value in [7] is given as “<=0.1 μM”.
Take `CSC(C)(C)[C@H](NC(=O)c1ccc(C#Cc2ccc(CNCc3nccs3)nc2)cc1)C(=O)NO` [Compound 744]: the MIC stood at 0.4 µM (≈ 0.204 µg/mL) in assay [1] (read-out: MIC MH 10720); 0.8 µM (≈ 0.408 µg/mL) in [3]; 0.8 µM (≈ 0.408 µg/mL) in assay [4]; 0.2 µM (≈ 0.102 µg/mL) in assay [6]; 0.4 µM (≈ 0.204 µg/mL) in [7] (read-out: MIC PM 6267); 0.4 µM (≈ 0.204 µg/mL) in assay [8]. Moreover, the MIC in assay [9] amounted to 0.8 µM (≈ 0.408 µg/mL); in [10], 1.6 µM (≈ 0.815 µg/mL). Moreover, the “MIC MH 12587” value in assay [2] was found to be 1.6 µM (≈ 0.815 µg/mL). Further, the “MIC PM 10775” value in assay [5] is recorded as “<=0.1 μM”.
Consider `CSC(C)(C)[C@H](NC(=O)c1ccc(C#Cc2ccc(CNCc3cccs3)cc2)cc1)C(=O)NO` [Compound 597], for which the “MIC MH 10720” value in [1] is reported as “<=0.1 μM”. For the same molecule, the “MIC MH 12587” value in assay [2] is 1.6 µM (≈ 0.812 µg/mL). The MIC was 0.8 µM (≈ 0.406 µg/mL) in assay [3]; 0.8 µM (≈ 0.406 µg/mL) in assay [4]; 0.2 µM (≈ 0.102 µg/mL) in [8]; 0.8 µM (≈ 0.406 µg/mL) in [9]; 0.8 µM (≈ 0.406 µg/mL) in assay [10]. Further, the “MIC PM 10775” value in assay [5] is given as “<=0.1 μM”. Further, the “MIC PM 12080” value in assay [6] is recorded as “<=0.1 μM”. Moreover, the “MIC PM 6267” value in assay [7] was “<=0.1 μM”.
Regarding `CC(C)C(NC(=O)c1ccc(C#Cc2ccc(CNC3CC3)cc2)cc1)C(=O)NO` (stereo not shown) [Compound 144], the “MIC MH 10720” value in [1] was “<=0.1 μM”. Further, the “MIC MH 12587” value in [2] came to 0.2 µM (≈ 0.0811 µg/mL). In addition, the MIC in assay [3] is on record as 1.563 µM (≈ 0.634 µg/mL); in assay [4], 0.195 µM (≈ 0.0791 µg/mL); in assay [8] it was 0.098 µM (≈ 0.0397 µg/mL); in assay [10], 0.2 µM (≈ 0.0811 µg/mL). The “MIC PM 10775” value in assay [5] is “<=0.1 μM”. In addition, the “MIC PM 12080” value in [6] was “<=0.1 μM”. Further, the “MIC PM 6267” value in [7] is on record as “<=0.1 μM”. Also, in assay [9], the “MIC MH 13065” value is reported as “<=0.1 μM”.
For `CC(C)(N)C(NC(=O)c1ccc(C#Cc2ccc(CNCC(F)(F)F)cc2)cc1)C(=O)NO` (racemic) [Compound 623], in assay [1], the “MIC MH 10720” value is on record as “<=0.1 μM”. Further, in assay [2], the “MIC MH 12587” value was 1.6 µM (≈ 0.74 µg/mL). For the same molecule, the minimal inhibitory concentration (MIC) in [3] amounted to 0.8 µM (≈ 0.37 µg/mL); in assay [4], 0.4 µM (≈ 0.185 µg/mL); in [8], 0.2 µM (≈ 0.0925 µg/mL); in assay [9], 0.8 µM (≈ 0.37 µg/mL); in [10] it was 0.8 µM (≈ 0.37 µg/mL). Further, the “MIC PM 10775” value in assay [5] is “<=0.1 μM”. Also, in [6], the “MIC PM 12080” value is “<=0.1 μM”. Moreover, the “MIC PM 6267” value in [7] is on record as “<=0.1 μM”.
For `CC(C)([C@H](NC(=O)c1ccc(C#Cc2ccc(CNCc3cccs3)cc2)cc1)C(=O)NO)S(C)(=O)=O` [Compound 617], in assay [1], the “MIC MH 10720” value is listed as “<=0.1 μM”. Further, the “MIC MH 12587” value in assay [2] was 0.8 µM (≈ 0.432 µg/mL). Besides, the MIC is 0.4 µM (≈ 0.216 µg/mL) in assay [3], 0.2 µM (≈ 0.108 µg/mL) in assay [4], 0.2 µM (≈ 0.108 µg/mL) in assay [9] and 0.4 µM (≈ 0.216 µg/mL) in assay [10]. In addition, the “MIC PM 10775” value in assay [5] is on record as “<=0.1 μM”. Also, in assay [6], the “MIC PM 12080” value is recorded as “<=0.1 μM”. Also, the “MIC PM 6267” value in assay [7] is listed as “<=0.1 μM”. In addition, the “MIC PM 6391” value in assay [8] was “<=0.1 μM”.
`CC(C)([C@H](NC(=O)c1ccc(C#Cc2ccc(CNCc3nccs3)s2)cc1)C(=O)NO)S(C)(=O)=O` [Compound 745]: the “MIC MH 10720” value in assay [1] is reported as “<=0.1 μM”. In addition, the “MIC MH 12587” value in [2] is 0.4 µM (≈ 0.219 µg/mL). In addition, the MIC in assay [3] was determined as 0.4 µM (≈ 0.219 µg/mL); in [4], 0.2 µM (≈ 0.109 µg/mL); in [9] it was 0.4 µM (≈ 0.219 µg/mL); in [10], 0.4 µM (≈ 0.219 µg/mL). Moreover, in assay [5], the “MIC PM 10775” value is on record as “<=0.1 μM”. Moreover, the “MIC PM 12080” value in [6] is recorded as “<=0.1 μM”. In addition, the “MIC PM 6267” value in assay [7] is given as “<=0.1 μM”. The “MIC PM 6391” value in assay [8] is on record as “<=0.1 μM”.

Source of the values: patent US20230000813A1, “COMPOUND FOR THE TREATMENT OF BOVINE OR SWINE RESPIRATORY DISEASE” (Intervet Inc., priority 2016, published 2023).
